We go through eleven molecules from PubChem BioAssay (NCI).

Molecules are shown by their SMILES.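 96-well plates; 48 h exposure; 5 concentrations. Endpoints by linear interpolation between flanking doses. Not reached: highest tested concentration assigned. At the GI50, growth is halved. At the TGI there is no net growth.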

Common to all, as to assay: NCI tumour cell line growth inhibition, 48 h
Assay [1] deals with NCI-H522 lung.
Assay [2] relates to A549 NSCLC.
Assay [3] has as its system COLO 205 colon.
The test system of assay [4] is DU-145 prostate.
Assay [5] concerns MCF7 breast.
In assay [6] the test system is MOLT-4 leukemia.
The test system of assay [7] is UO-31 renal.
The test system of assay [8] is EKVX NSCLC.

For `CC(=O)Oc1ccccc1C(=O)N=C1[Se]CCCN1C(=O)c1ccccc1OC(C)=O`, the GI50 in assay [1] was 1.59 µM; in assay [2], 1.85 µM; in assay [3] it was 3.08 µM; in assay [4], 1.82 µM; in assay [5] it was 2.79 µM; in assay [6] it was 1.92 µM. For the same molecule, the GI50 in assay [7] is 1.33 µM. Also, the TGI in assay [1] turned out to be 3.42 µM; in assay [2], 3.69 µM; in assay [3], 10.1 µM; in assay [4], 3.26 µM; in assay [5], 10.8 µM; in assay [6], 4.96 µM. This molecule also returned a TGI in assay [7] of 4.25 µM.

Consider `O/N=C\c1c(O)ccc2ccccc12`, for which the TGI in assay [2], in assay [8], in assay [3] and in assay [5] was more than 100 µM throughout.

Take `O=C1c2ccn(CCCCNC(CO)(CO)CO)c2C(=O)c2c1c(O)c1ccccc1c2O`: the GI50 is 4.38 µM in assay [1]; 1.86 µM in assay [2]; 24.8 µM in assay [8]; 0.912 µM in assay [3]; 1.89 µM in assay [4]; 2.27 µM in assay [6]. Moreover, the GI50 in assay [7] is 23.7 µM. The TGI in assay [1] is more than 100 µM; in assay [2] it was 3.96 µM; in assay [8], 74 µM; in assay [3] it was more than 23.6 µM; in assay [4], 4.69 µM; in assay [6], 4.2 µM. The molecule further displayed a TGI in assay [7] of more than 100 µM.

Regarding `Cc1cn2c(/C=C3/C(=O)Nc4ccccc43)c(-c3ccc(Cl)cc3)nc2s1`, the GI50 is 9.01 µM in assay [1]; 7.52 µM in assay [2]; 8.73 µM in assay [8]; 10.4 µM in assay [3]; 6.9 µM in assay [5]; 16.9 µM in assay [6]. In assay [7], the GI50 was 35.9 µM. In addition, the TGI in assay [1] came to 19.5 µM; in assay [2], 16 µM; in assay [8] it was 18.8 µM; in assay [3] it was 22.2 µM; in assay [5], 19.7 µM; in assay [6] it was 47.4 µM. For the same molecule, the TGI in assay [7] is more than 50 µM.

Take `CC(=O)c1c(CBr)n([O-])c2ccccc2[n+]1=O`: the GI50 in assay [1] was 2.93 µM; in assay [2], 23.1 µM; in assay [8] it was 13.2 µM; in assay [3], 1.81 µM; in assay [4], 12.8 µM; in assay [6], 4 µM. In addition, the GI50 in assay [7] is 5.51 µM. The TGI worked out at 8.91 µM in assay [1]; 57 µM in assay [2]; 30.3 µM in assay [8]; 3.63 µM in assay [3]; 25.5 µM in assay [4]; 15.7 µM in assay [6]. In assay [7], this molecule showed a TGI of 19 µM.

With `CC(=O)Oc1ccc(Nc2c3ccccc3nc3ccccc23)cc1`, the GI50 in assay [2] was 0.365 µM; in assay [8], 3.05 µM; in assay [3], 0.861 µM; in assay [4], 0.536 µM; in assay [5] it was 0.476 µM; in assay [6], 0.321 µM. The GI50 in assay [7] was 0.693 µM. Moreover, the TGI in assay [2] was 1.87 µM; in assay [8], 25.3 µM; in assay [3] it was 2.33 µM; in assay [4], 3 µM; in assay [5] it was 10.1 µM; in assay [6] it was more than 100 µM. In assay [7], this molecule gave a TGI of 2.59 µM.

As to `CC(=O)Oc1ccccc1C(=O)N=C1[Se]CCN1C(=O)c1ccccc1OC(C)=O`, the GI50 in assay [1] is 1.22 µM; in assay [2], 0.832 µM; in assay [3], 1.84 µM; in assay [4] it was 0.61 µM; in assay [5] it was 1.12 µM; in assay [6], 0.621 µM. For the same molecule, the GI50 in assay [7] is 0.424 µM. Moreover, the TGI in assay [1] was 2.7 µM; in assay [2], 2.64 µM; in assay [3] it was 4.07 µM; in assay [4], 2.18 µM; in assay [5], 5.06 µM; in assay [6], more than 100 µM. In assay [7], this molecule gave a TGI of 1.53 µM.

With `CN1CCc2c(Sc3ccc(C(=O)NO)cc3)c3ccccc3n2C1`, the GI50 in assay [1] was 1.14 µM; in assay [2] it was 3.29 µM; in assay [3], 1.92 µM; in assay [4], 2.57 µM; in assay [5], 2.7 µM; in assay [6], 2.53 µM. Also, in assay [7], the GI50 was 2.33 µM. Besides, the TGI in assay [1] stood at 2.62 µM; in assay [2], 12.9 µM; in assay [3] it was 4.52 µM; in assay [4], 9.37 µM; in assay [5], 13.6 µM; in assay [6] it was 7.01 µM. The molecule also registered a TGI in assay [7] of 14.9 µM.

Consider `CSC1(CC(=O)N(C)C)C(=O)Nc2ccccc21` (stereo unspecified), for which the TGI in assay [2], in assay [8], in assay [3], in assay [4], in assay [5] and in assay [6] was more than 100 µM throughout. In addition, the TGI in assay [7] was more than 100 µM.

Turning to `CCOC(=O)C1=C(C)N(N)C(=S)NC1c1ccc(C)cc1` (stereo unspecified), the GI50 in assay [1] was 18.2 µM; in assay [2], 94.6 µM; in assay [3] it was 33.5 µM; in assay [5] it was 16 µM; in assay [6] it was 45.7 µM; in assay [7], 23.5 µM. Further, the TGI in assay [1] was more than 100 µM; in assay [2], more than 100 µM; in assay [3], more than 100 µM; in assay [4], 12.3 µM; in assay [5], 73.6 µM; in assay [6] it was more than 100 µM. The TGI in assay [7] is more than 100 µM.

Consider `CN(C)c1ccc2nc3ccc(=O)cc-3sc2c1`, for which the GI50 in assay [1] is 0.835 µM; in assay [2] it was 0.312 µM; in assay [3], 0.38 µM; in assay [4], 1.8 µM; in assay [5] it was 0.445 µM; in assay [6], 1.4 µM. Also, the GI50 in assay [7] was 0.545 µM. Besides, the TGI stood at 7.85 µM in assay [1]; 3.02 µM in assay [2]; 3.81 µM in assay [3]; 6.17 µM in assay [4]; 5.75 µM in assay [5]; 26 µM in assay [6]. In assay [7], the TGI is more than 74.5 µM.
